The text below walks through data of patent US20220273637A1, “NOVEL PFAR-INHIBITING COMPOUNDS” (UNIVERSITE DE BRETAGNE OCCIDENTALE (UBO), priority 2019, published 2022).

The subject of one test is PABPN1 aggregates. It is filed as cell-based, murine.
In test [1] the test system is PFAR (protein folding activity of ribosome). Nature of the test: Inhibition of PFAR in yeast cells (LuxAB luciferase refolding after heat shock). The test is classed as cell-based.
Test [2] has as its system Drosophila expressing PABPN1-17ala. Nature of the test: Drosophila model of OPMD (PABPN1-17ala): abnormal wing position. It is filed as in vivo. The conditions noted are these: 2 mM in food, day 3 to day 6, chi-squared test. The source says:
The model used is a fruit fly model for OPMD in which the mammalian protein PABPN1 with a repetition of 17 alanines (PABPN1-17a1a) is specifically expressed in the muscles of Drosophila (Chartier et al. 2006; Chartier et al. 2015). These models reproduce the characteristics of the disease, i.e. weakness and progressive muscular degeneration, and also the formation of nuclear PABPN1 aggregates. Thus, the expression of PABPN1-17ala in the indirect wing muscles leads to an abnormal wing posture, resulting from the disorder of the muscle function and degeneration of the muscles (Chartier et al. 2006). […]
The compounds were administered in the food, prepared as follows: an instant Drosophila medium (Carolina Biological Supply Company) was reconstituted in each tube with a 1% solution of yeast in water, supplemented by the compounds dissolved in DMSO with an increasing concentration, or with DMSO alone. […] The effect of the compounds was quantified by the daily measurement of the number of flies presenting an abnormal wing posture, corresponding to the flies expressing PABPN1-17ala, from day 3 to day 6 of the adult age: groups of five males per condition are placed in an empty tube and the number of males having an abnormal wing position is recorded by direct observation of the flies in the tube, without anesthesia.

On to `CN(C)C(=O)C(CCN1CCC(O)(c2ccc(Cl)cc2)CC1)(c1ccccc1)c1ccccc1` [loperamide], for which the “nuclei having aggregates of the PABPN1 protein” value (from here on “nuclei having aggregates”) in the test on PABPN1 aggregates is “reduce the amount of muscle cell nuclei containing PABPN1 aggregates”.

For `c1ccc(CN(CC2=NCCN2)c2ccccc2)cc1` [antazoline], in test [1], the “inhibition of PFAR” value is “do not inhibit PFAR”. With `CN1CCCC(n2nc(Cc3ccc(Cl)cc3)c3ccccc3c2=O)CC1` (centres unmarked) [azelastine], the “nuclei having aggregates” value with PABPN1 aggregates is listed as “reduce the amount of muscle cell nuclei containing PABPN1 aggregates”.

In the case of `CNCC[C@H](Oc1cccc2ccccc12)c1cccs1` [duloxetine], in the test on PABPN1 aggregates, the “nuclei having aggregates” value is reported as “reduce the amount of muscle cell nuclei containing PABPN1 aggregates”. As for `CN(C)CCCN1c2ccccc2Sc2ccc(C(F)(F)F)cc21` [triflupromazine], in the test on PABPN1 aggregates, the “nuclei having aggregates” value is “negative”.

Turning to `COc1ccc(CCN2CCC(Nc3nc4ccccc4n3Cc3ccc(F)cc3)CC2)cc1` [astemizole], in the test with PABPN1 aggregates, the “nuclei having aggregates” value was “reduce the amount of muscle cell nuclei containing PABPN1 aggregates”. For the compound `CSc1ccc2c(c1)N(CCC1CCCCN1C)c1ccccc1S2` (centres unmarked) [thioridazine], in the test on PABPN1 aggregates, the “nuclei having aggregates” value is “reduce the amount of muscle cell nuclei containing PABPN1 aggregates”. On to `CC(C)(C)c1ccc(C(=O)CCCN2CCC(OC(c3ccccc3)c3ccccc3)CC2)cc1` [ebastine], for which the “nuclei having aggregates” value in the test with PABPN1 aggregates was “reduce the amount of muscle cell nuclei containing PABPN1 aggregates”. On the same count and under the same terms, in the case of `CN1CCC[C@@H]1CCO[C@](C)(c1ccccc1)c1ccc(Cl)cc1` [clemastine] it was “negative”. As for `CN1CCCC(CC2c3ccccc3Sc3ccccc32)C1` (centres unmarked) [metixene], in the test on PABPN1 aggregates, the “activity compared with guanabenz (positive control)” value is reported as “more active than guanabenz” and the “nuclei having aggregates” value is reported as “reduce the amount of muscle cell nuclei containing PABPN1 aggregates”. Moreover, in test [2], the “number of flies presenting an abnormal wing posture relative to DMSO” value is listed as “significant reduction”. Take `CN1C(=O)CN=C(c2ccccc2)c2cc(Cl)ccc21` [diazepam]: the “inhibition of PFAR” value in test [1] was “do not inhibit PFAR”. Further, the “nuclei having aggregates” value with PABPN1 aggregates is “negative”.
